# From paper PMC8282878, “Enhanced mosquitocidal efficacy of pyrethroid insecticides by nanometric emulsion preparation towards Culex pipiens larvae with biochemical and molecular docking studies” (Journal of the Egyptian Public Health Association, 2021)
# “And” between values parts separate entries of the source, which are not always exact repeats. Equal entries are not always repeated. Where two headings read alike, the source gives them in different places.
# Key:
# Culex pipiens larvae = assay: Toxicity assay against C. pipiens larvae (WHO larval bioassay); format: in vivo; conditions: for LC50: Culex pipiens
# Text: A susceptible strain of C. pipiens culture was obtained from Research Institute of Medical Entomology, Ministry of Health, Dokki, Giza, Egypt, and reared in High Institute of Public Health insectary, Alexandria University, Alexandria, Egypt. The Larvae were fed on biscuits [containing wheat flour and yeast powder mixed with milk powder (10: 1: 1, w/w, respectively)] until pupation in shallow trays containing 2–3 L of de-chlorinated water. Male adults were fed on 30% sucrose solution, and females were fed on pigeon blood four times a week in adult cages. […] The egg rafts were transferred from adult cages to white trays containing de-chlorinated water for egg hatch.
# According to the World Health Organization, the larval bioassay was performed to compare the effect of nanoemulsions of selected pyrethroids with their active ingredient and commercial EC formulations on the C. pipiens larva recommendations. Third instar larvae were used in the evaluation by a direct contact method. The three forms of tested insecticides (technical, commercial EC formulation, and nanoemulsion) were tested to obtain the LC50 values. Technical pyrethroids were dissolved in DMSO and mixed with Tween-80 (0.05%), while the EC and nanoemulsions were dissolved in distilled water. Different concentrations ranging from 0.5 to 500 μg/L were tested in three replicates. Twenty C. pipiens larvae were put into plastic cups containing 100 mL of de-chlorinated water. The larvae were treated separately with Tween 80 or DMSO, and larvae without any treatment were maintained as control. The larvae’s morbidity and mortality were verified and recorded based on the larvae’s uncoordinated movement after investigating the cervical region with a needle.
# [1] = test system: adenosine triphosphatase (ATPase); assay: ATPase assay in homogenate of surviving treated larvae; format: biochemical, Culex pipiens; conditions: larvae 24 h after treatment with LC50, untreated 1.40
# Description: ATPase activity was performed according to Koch’s method. The reaction mixture, which contained 400 mM Na^+, 20 mM K^+, 5 mM Mg ^+, and 5 mM ATP, was prepared, and 200 μL of the crude enzyme was added to this mixture. Then, the volume was completed to 950 μL with Tris-HCl buffer (pH 7.4). After 10 min incubation at 37 °C, the reaction was stopped with 200 μL of TCA. A fresh color reagent (5 g ferrous sulfate in 10 mL ammonium molybdate solution prepared in 10 N sulfuric acid) was added to the reaction mixture. The absorbance of the developed blue color was measured at 740 nm, and the enzyme activity was calculated as OD740 min^−1 mg protein^−1.
# carboxylesterase (CaE) = assay: CaE assay in homogenate of surviving treated larvae; format: biochemical, Culex pipiens; conditions: larvae 24 h after treatment with LC50, untreated 3.31
# Description: CaE activity was determined according to Van Asperen’s method, which used α-naphthyl acetate as a substrate. The assay mixture contained 50 μL of homogenate enzyme, 2.1 mL of 50 mM sodium phosphate buffer (pH 7.4), and 25 μL of 5 mM α-naphthyl acetate solution. The mixture incubation was done at 37 °C for 15 min. […] The absorption was measured at 555 nm. The enzyme activity was expressed as OD555 min^−1 mg protein^−1.
# [2] = test system: freshwater green alga Raphidocelis subcapitata; assay: whole plant or invertebrate; conditions: for EC50: Raphidocelis subcapitata, 96 h, read-out: 96 h EC50 (95% confidence limits); for NOEC: no observed effect concentration on algal growth rate, NOEC = EC/10
# Description: The freshwater green alga Raphidocelis subcapitata was obtained from the Faculty of Science; Mansoura University, Egypt. The stock culture was maintained in 250-mL borosilicate Erlenmeyer flasks containing culture medium at 24 ± 2 °C, under a continuous white fluorescent light of 3000–4000 lux, and manually shaken twice a day. The axenic culture was maintained for the provision of a continuous supply of “healthy” cells for the tests in a standard algal assay medium (AAM) as described in Miller et al..
# An acute algal growth inhibition test was conducted using different concentrations of each insecticide in sterile AAM in a final volume of 50 mL. Tested concentrations of a pesticide were prepared from stock solutions on an arithmetic progression covering an expected range of toxicity from 0 to 90%. Stock solutions of technical insecticides were prepared in 1% DMSO and a corresponding control was included. Stock solutions of the EC and NE were prepared. Algal suspensions were exposed to different concentrations (0.0005–500 mg/L) prepared in the same medium of algae culture. All assays were conducted in triplicate. An inoculum of the exponentially-growing culture of R. subcapitata (harvested from 4–7 days stock culture) was prepared no more than 2–3 h before the beginning of the test. Initial cell density for the growth inhibition test was 10,000 cells/ml in both test and control flasks. Zero-time begins at inoculation of all flasks with the algal cells followed by incubation for 96 h in a temperature-controlled (25 °C) orbital shaker set at 100 rpm under continuous illumination via white fluorescent lamps. After 96 h, algal growth in terms of viable cell concentration was examined in a Neubauer hemocytometer using a phase-contrast microscope. Growth rate inhibition of the alga was used as the endpoint in this assessment. The percent inhibition values were calculated after 96 h, and the median effective concentration (EC50) values were calculated from the probit analysis with 95% confidence limits. The no observed effect concentration (NOEC) after algal exposure to each tested insecticide was calculated by the formula: NOEC = EC/10 [31]. Furthermore, the hazard statement of each tested insecticide was estimated according to UNECE GHS (2019).
# Statistical analysis was performed using the IBM SPSS software version 25.0 (SPSS, Chicago, IL, USA). Mortality percentages were calculated for each treatment and corrected using Abbott’s equation [34]. Means and standard error (SE) were obtained from three independent replications performed for each treatment. The log dose-response (LdP) lines were used in the determination of the LC50 values for the mosquito’s bioassay and EC50 values for the algal bioassay according to the probit analysis. The least-square regression analysis was used to determine the 95% confidence limits. Analysis of variance (ANOVA) of the biochemical data was conducted and means property values were separated (p ≤ 0.05) with Student-Newman-Keuls (SNK).
# [3] = test system: glutathione-S-transferase (GST); conditions: larvae 24 h after treatment with LC50, untreated 2.70
# Description: The homogenate was centrifuged at 5000 rpm for 20 min at 4°C. The supernatant was used immediately for enzymatic assay or stored at – 20 °C. Total protein was determined according to Lowry et al.’s [23] method, and the concentrations were calculated by comparing with the standard curve of BSA.
# GST assay was performed using reduced glutathione (2.5 mM) by Saint-Deniset et al. [26]. The assay mixture contained 100 μL of 1.5 mM CDNB, 200 μL of reduced glutathione, and 1.5 ml of pH 7.4 phosphate buffer. A total of 200 μL of the enzyme was added to the above mixture, shaken gently, and incubated for 15 min at 37 °C. The absorbance was recorded at 340 nm using a UV/Visible spectrophotometer (Alpha-1502. Laxco Inc, USA). One unit of enzyme activity attributed to the quantity of conjugated enzyme with 1 mmol of GSH per min. The enzyme activity was expressed as OD340 min^−1 mg protein^−1.
# [4] = test system: C. tritaeniorhynchus larvae; parameters: method as in PMID 28245893; conditions: cited from earlier work
# [5] = cited from earlier work
SMILES,Slope ± SE of the concentration mortality regression line (Culex pipiens larvae; 24 h exposure),Slope ± SE of the concentration mortality regression line (Culex pipiens larvae; 48 h exposure),LC50 (Culex pipiens larvae; 24 h) [µg/mL],LC50 (Culex pipiens larvae; 48 h) [µg/mL],"Specific activity ± SE, CaE (carboxylesterase (CaE)) [OD mg protein^−1 min]",EC50 [2] [µg/mL],NOEC [2] [mg/L],also measured
"CC1(C)[C@H](C(=O)O[C@H](C#N)c2cccc(Oc3ccccc3)c2)[C@@H]1/C=C(\Cl)C(F)(F)F (racemic) [Lambda-cyhalothrin, lambda-cyhalothrin]",1.47 ± 0.09,1.30 ± 0.09,0.027,0.018,1.51 ± 0.09,33.9,3.389,"Specific activity ± SE, ATPase ([1]; listed as Lambda-cyhalothrin T): 0.62 OD mg protein^−1 min and 0.62 ± 0.05 OD mg protein^−1 min; Specific activity ± SE, GST ([3]; listed as Lambda-cyhalothrin T): 4.57 OD mg protein^−1 min and 4.57 ± 0.48 OD mg protein^−1 min"
"CC1(C)C(C=C(Cl)Cl)C1C(=O)OCc1cccc(Oc2ccccc2)c1 (centres unmarked) [Permethrin, permethrin]",1.36 ± 0.089,1.26 ± 0.08,0.322,0.225,2.31 ± 0.09,14.9,1.494,"LC50 (Culex pipiens larvae; read-out: LC50 range): 0.127 to 0.322 µg/mL; Specific activity ± SE, ATPase ([1]; listed as Permethrin T): 0.64 OD mg protein^−1 min and 0.64 ± 0.00 OD mg protein^−1 min; Specific activity ± SE, GST ([3]; listed as Permethrin T): 6.32 OD mg protein^−1 min and 6.32 ± 0.59 OD mg protein^−1 min"
"CC1(C)C(C=C(Cl)Cl)C1C(=O)OCc1cccc(Oc2ccccc2)c1 (centres unmarked) [bulk permethrin, permethrin]",–,–,–,–,–,–,–,LC50 [4]: 0.442 µg/mL
"CC1(C)[C@H](C(=O)O[C@H](C#N)c2cccc(Oc3ccccc3)c2)[C@@H]1C=C(Br)Br [Deltamethrin, deltamethrin]",2.23 ± 0.13,2.12 ± 0.13,–,–,–,> 100,> 10,"LC50 (Culex pipiens larvae; third instar larvae, 24 h exposure, read-out: LC50): 0.028 µg/mL; LC50 (Culex pipiens larvae; third instar larvae, 48 h exposure, read-out: LC50): 0.025 µg/mL; Specific activity ± SE, ATPase ([1]; listed as Deltamethrin T): 0.69 OD mg protein^−1 min and 0.69 ± 0.02 OD mg protein^−1 min; Specific activity ± SE, CaE (carboxylesterase (CaE); listed as Deltamethrin T): 4.53 OD mg protein^−1 min and 3.44 ± 0.19 OD mg protein^−1 min; Specific activity ± SE, GST [3]: 5.49 ± 0.60 OD mg protein^−1 min"
"CC1(C)C(C=C(Cl)Cl)C1C(=O)OC(C#N)c1cccc(Oc2ccccc2)c1 (stereo not drawn) [Alpha-cypermethrin, alpha-cypermethrin]",2.47 ± 0.15,–,0.043,0.04,5.06 ± 0.15,69.3,6.932,"Specific activity ± SE, ATPase ([1]; listed as Alpha-cypermethrin T): 0.86 OD mg protein^−1 min and 0.86 ± 0.02 OD mg protein^−1 min; Specific activity ± SE, GST ([3]; listed as Alpha-cypermethrin T): 5.31 OD mg protein^−1 min and 5.31 ± 0.70 OD mg protein^−1 min"
C[n+]1ccc(-c2cc[n+](C)cc2)cc1 [paraquat],–,–,–,–,–,–,–,96 h EC50 [5]: 0.48 µg/mL
